| melting point | SMILES |
| --- | --- |
| 255 to 257 °C | CCn1ncc2c(-c3cncc(C)c3)c(/C=C/C(=O)O)c(C3CCCCC3)nc21 [Example 190, (2E)-3-[6-Cyclohexyl-1-ethyl-4-(5-methyl-3-pyridyl)-1H-pyrazolo[3,4-b]pyridin-5-yl]acrylic acid] |
| 234 to 235 °C | CCn1ncc2c(-c3cccc(Cl)c3)c(/C=C/C(=O)O)c(COC)nc21 [Example 191, (2E)-3-[4-(3-Chlorophenyl)-1-ethyl-6-(methoxymethyl)-1H-pyrazolo[3,4-b]pyridin-5-yl]acrylic acid] |
| 203 to 205 °C | CCn1ncc2c(-c3cncc(C)c3)c(CCC(=O)O)c(C(C)C)nc21 [Example 194, 3-[1-Ethyl-6-isopropyl-4-(5-methyl-3-pyridyl)-1H-pyrazolo[3,4-b]pyridin-5-yl]propanoic acid] |
| 197 to 199 °C | CCC(CC)c1nc2c(cnn2CC)c(-c2cncc(C)c2)c1/C=C/C(=O)O [Example 201, (2E)-3-[1-Ethyl-6-(1-ethylpropyl)-4-(5-methyl-3-pyridyl)-1H-pyrazolo[3,4-b]pyridin-5-yl]acrylic acid] |
| > 250 °C | CCn1ncc2c(-c3ccnc(Cl)c3)c(/C=C/C(=O)O)c(-c3ccccc3)nc21 [Example 204, (2E)-3-[4-(2-Chloro-4-pyridyl)-1-ethyl-6-phenyl-1H-pyrazolo[3,4-b]pyridin-5-yl]acrylic acid] |
| 201 to 202 °C | CCn1ncc2c(CC3CCCCC3)c(/C=C/C(=O)O)c(-c3ccccc3)nc21 [Example 206, (2E)-3-[4-(Cyclohexylmethyl)-1-ethyl-6-phenyl-1H-pyrazolo[3,4-b]pyridin-5-yl]acrylic acid] |
| 187 to 188 °C | CCn1ncc2c(-c3ccc(Cl)s3)c(/C=C/C(=O)O)c(-c3ccccc3)nc21 [Example 207, (2E)-3-[4-(5-Chloro-2-thienyl)-1-ethyl-6-phenyl-1H-pyrazolo[3,4-b]pyridin-5-yl]acrylic acid] |
| 255 to 258 °C | CCn1ncc2c(-c3ccc(Cl)nc3)c(/C=C/C(=O)O)c(-c3ccccc3)nc21 [Example 208, (2E)-3-[4-(6-Chloro-3-pyridyl)-1-ethyl-6-phenyl-1H-pyrazolo[3,4-b]pyridin-5-yl]acrylic acid] |
| > 250 °C | CCn1ncc2c(-c3ccccc3)c(/C=C/C(=O)O)c(-c3ccccc3)nc21 [Example 211, (2E)-3-(1-Ethyl-4,6-diphenyl-1H-pyrazolo[3,4-b]pyridin-5-yl)acrylic acid] |
| 247 to 248 °C | CCn1ncc2c(-c3cncc(C)c3)c(/C=C/C(=O)O)c(C(C)C)nc21 [Example 212, (2E)-3-[1-Ethyl-6-isopropyl-4-(5-methyl-3-pyridyl)-1H-pyrazolo[3,4-b]pyridin-5-yl]acrylic acid] |
| 242 to 244 °C | CCn1ncc2c(-c3cncc(Cl)c3)c(/C=C/C(=O)O)c(-c3ccccc3)nc21 [Example 213, (2E)-3-[4-(5-Chloro-3-pyridyl)-1-ethyl-6-phenyl-1H-pyrazolo[3,4-b]pyridin-5-yl]acrylic acid] |
| 221 to 222 °C | CCn1ncc2c(-c3cncc(C)c3)c(/C=C/C(=O)O)c(C3CC3)nc21 [Example 214, (2E)-3-[6-Cyclopropyl-1-ethyl-4-(5-methyl-3-pyridyl)-1H-pyrazolo[3,4-b]pyridin-5-yl]acrylic acid] |
| 212 to 213 °C | CCn1ncc2c(-c3cncc(C)c3)c(/C=C/C(=O)O)c(CC(C)C)nc21 [Example 215, (2E)-3-[1-Ethyl-6-isobutyl-4-(5-methyl-3-pyridyl)-1H-pyrazolo[3,4-b]pyridin-5-yl]acrylic acid] |
| 253 to 254 °C | CCn1ncc2c(-c3cncc(OC)c3)c(/C=C/C(=O)O)c(-c3ccccc3)nc21 [Example 218, (2E)-3-[1-Ethyl-4-(5-methoxy-3-pyridyl)-6-phenyl-1H-pyrazolo[3,4-b]pyridin-5-yl]acrylic acid] |
| 163 to 165 °C | CCn1ncc2c(-c3ccc(Cl)s3)c(/C=C/C(=O)O)c(C(C)C)nc21 [Example 224, (2E)-3-[4-(5-Chloro-2-thienyl)-1-ethyl-6-isopropyl-1H-pyrazolo[3,4-b]pyridin-5-yl]acrylic acid] |
| 234 to 235 °C | CCn1ncc2c(-c3cncc(Br)c3)c(/C=C/C(=O)O)c(C(C)C)nc21 [Example 225, (2E)-3-[4-(5-Bromo-3-pyridyl)-1-ethyl-6-isopropyl-1H-pyrazolo[3,4-b]pyridin-5-yl]acrylic acid] |
| 180 to 182 °C | CCn1ncc2c(-c3cncc(Br)c3)c(/C=C/C(=O)O)c(COC)nc21 [Example 226, (2E)-3-[4-(5-Bromo-3-pyridyl)-1-ethyl-6-(methoxymethyl)-1H-pyrazolo[3,4-b]pyridin-5-yl]acrylic acid] |
| 218 to 220.5 °C | CCn1ncc2c(-c3cncc(Cl)c3)c(/C=C/C(=O)O)c(C(C)C)nc21 [Example 228, (2E)-3-[4-(5-Chloro-3-pyridyl)-1-ethyl-6-isopropyl-1H-pyrazolo[3,4-b]pyridin-5-yl]acrylic acid] |
| 212 to 213 °C | CCn1ncc2c(-c3cncc(C)c3)c(CCC(=O)O)c(C3CCC3)nc21 [Example 230, 3-[6-cyclobutyl-1-ethyl-4-(5-methyl-3-pyridyl)-1H-pyrazolo[3,4-b]pyridin-5-yl]propanoic acid] |

The next lines start with the molecule.

| SMILES | melting point |
| --- | --- |
| CCOC(=O)c1c(C)nc2c(cnn2CC)c1-c1ccnc(Cl)c1 [Example 3, Ethyl 4-(2-chloro-4-pyridyl)-1-ethyl-6-methyl-1H-pyrazolo[3,4-b]pyridine-5-carboxylate] | 109 to 110 °C |
| CCn1ncc2c(-c3cncc(C)c3)c(C(=O)NCc3ccc(OC)cc3)c(-c3ccccc3)nc21 [Example 65, 1-ethyl-N-(4-methoxybenzyl)-4-(5-methyl-3-pyridyl)-6-phenyl-1H-pyrazolo[3,4-b]pyridine-5-carboxamide] | 203 to 204 °C |
| CCn1ncc2c(-c3cncc(C)c3)c(C(=O)NC3Cc4ccccc4C3)c(-c3ccccc3)nc21 [Example 66, N-(2,3-Dihydro-1H-inden-2-yl)-1-ethyl-4-(5-methyl-3-pyridyl)-6-phenyl-1H-pyrazolo[3,4-b]pyridine-5-carboxamide] | 269 to 270 °C |
| CCn1ncc2c(-c3cncc(C)c3)c(C#N)c(C)nc21 [Example 74, 1-Ethyl-6-methyl-4-(5-methyl-3-pyridyl)-1H-pyrazolo[3,4-b]pyridine-5-carbonitrile] | 160 to 161 °C |
| CCn1ncc2c(-c3cncc(C)c3)c(CCC(=O)O)c(-c3ocnc3C)nc21 [Example 79, 3-[1-ethyl-6-(4-methyl-1,3-oxazol-5-yl)-4-(5-methyl-3-pyridyl)-1H-pyrazolo[3,4-b]pyridin-5-yl]propanoic acid] | 184 to 185.5 °C |
| CCn1ncc2c(-c3cncc(C)c3)c(/C=C/C(=O)O)c(COC)nc21 [Example 82, (2E)-3-[1-ethyl-6-(methoxymethyl)-4-(5-methyl-3-pyridyl)-1H-pyrazolo[3,4-b]pyridin-5-yl]acrylic acid] | 195 to 196 °C |
| CCn1ncc2c(-c3cncc(C)c3)c(/C=C/C(=O)O)c(C)nc21 [Example 85, (2E)-3-[1-Ethyl-6-methyl-4-(5-methyl-3-pyridyl)-1H-pyrazolo[3,4-b]pyridin-5-yl]acrylic acid] | 239 to 241 °C |
| CCn1ncc2c(-c3cncc(Br)c3)c(C(=O)O)c(COC)nc21 [Example 86, 4-(5-Bromo-3-pyridyl)-1-ethyl-6-(methoxymethyl)-1H-pyrazolo[3,4-b]pyridine-5-carboxylic acid] | 162 to 163 °C |
| CCn1ncc2c(-c3cncc(C)c3)c(/C=C/C(=O)O)c(COCC3CC3)nc21 [Example 87, (2E)-3-[6-[(Cyclopropylmethoxy)methyl]-1-ethyl-4-(5-methyl-3-pyridyl)-1H-pyrazolo[3,4-b]pyridin-5-yl]acrylic acid] | 187 to 189 °C |
| CCn1ncc2c(-c3cncc(Br)c3)c(/C=C/C(=O)O)c(COCC3CC3)nc21 [Example 88, (2E)-3-{4-(5-Bromo-3-pyridyl)-6-[(cyclopropylmethoxy)methyl]-1-ethyl-1H-pyrazolo[3,4-b]pyridin-5-yl}acrylic acid] | 183 to 184 °C |
| Cc1cncc(-c2c(/C=C/C(=O)O)c(C)nc3c2cnn3C)c1 [Example 90, (2E)-3-[1,6-Dimethyl-4-(5-methyl-3-pyridyl)-1H-pyrazolo[3,4-b]pyridin-5-yl]acrylic acid] | 269 to 272 °C |
| CCn1ncc2c(-c3cncc(C)c3)c(CCC(=O)O)c(COC)nc21 [Example 92, 3-[1-Ethyl-6-(methoxymethyl)-4-(5-methyl-3-pyridyl)-1H-pyrazolo[3,4-b]pyridin-5-yl]propanoic acid] | 154 to 155 °C |
| CCn1ncc2c(-c3cncc(Br)c3)c(CCC(=O)O)c(C)nc21 [Example 93, 3-[4-(5-Bromo-3-pyridyl)-1-ethyl-6-methyl-1H-pyrazolo[3,4-b]pyridin-5-yl]propanoic acid] | 178 to 179.5 °C |
| CCn1ncc2c(-c3cncc(C)c3)c(CCC(=O)O)c(C)nc21 [Example 94, 3-[1-Ethyl-6-methyl-4-(5-methyl-3-pyridyl)-1H-pyrazolo[3,4-b]pyridin-5-yl]propanoic acid] | 179 to 181 °C |
| CCn1ncc2c(-c3cncc(C)c3)c(CCC(=O)O)c(COCC3CCCCC3)nc21 [Example 96, 3-[6-[(Cyclohexylmethoxy)methyl]-1-ethyl-4-(5-methyl-3-pyridyl)-1H-pyrazolo[3,4-b]pyridin-5-yl]propanoic acid] | 183 to 184 °C |
| Cc1cncc(-c2c(CCC(=O)O)c(C)nc3c2cnn3C)c1 [Example 97, 3-[1,6-Dimethyl-4-(5-methyl-3-pyridyl)-1H-pyrazolo[3,4-b]pyridin-5-yl]propanoic acid] | 205 to 207 °C |
| CCn1ncc2c(-c3cncc(C)c3)c(CCC(=O)O)c(-c3ccccc3)nc21 [Example 98, 3-[1-Ethyl-4-(5-methyl-3-pyridyl)-6-phenyl-1H-pyrazolo[3,4-b]pyridin-5-yl]propanoic acid] | 235 to 237 °C |
| CCn1ncc2c(-c3cncc(C)c3)c(CCC(=O)O)c(C#N)nc21 [Example 100, 3-[6-Cyano-1-ethyl-4-(5-methyl-3-pyridyl)-1H-pyrazolo[3,4-b]pyridin-5-yl]propanoic acid] | 209 to 210 °C |
